System: 782815-120-R-J1-PDC complex spheroid viability
Experiment: Anticancer human tumor 782815-120-R-J1-PDC patient-derived colon adenocarcinoma cell line growth inhibition [RAS]
Details: for IC50: curve of first compound; for viability, T/C: stronger effect = lower value
Procedure, shortened: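 Agents were tested in combination matrices in half-log decrements from a top concentration at or near clinical Cmax (10 microM if undetermined). Targets were multi-cell spheroids of tumour lines plus HUVEC and MSC stromal cells.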

[1] = second compound 0.000949 µM, first compound 0.0316 µM
[2] = second compound 0.000949 µM, first compound 0.1 µM
[3] = second compound 0.000949 µM, first compound 0.316 µM
[4] = second compound 0.000949 µM, first compound 1 µM
[5] = second compound 0.000949 µM, first compound 3.16 µM
[6] = second compound 0.000949 µM, first compound 10 µM
[7] = second compound 0.003 µM, first compound 0.0316 µM
[8] = second compound 0.003 µM, first compound 0.1 µM
[9] = second compound 0.003 µM, first compound 0.316 µM
[10] = second compound 0.003 µM, first compound 1 µM
[11] = second compound 0.003 µM, first compound 3.16 µM
[12] = second compound 0.003 µM, first compound 10 µM
[13] = second compound 0.00949 µM, first compound 0.0316 µM
[14] = second compound 0.00949 µM, first compound 0.1 µM
[15] = second compound 0.00949 µM, first compound 0.316 µM
[16] = second compound 0.00949 µM, first compound 1 µM
[17] = second compound 0.00949 µM, first compound 3.16 µM
[18] = second compound 0.00949 µM, first compound 10 µM
[19] = second compound 0.03 µM, first compound 0.0316 µM
[20] = second compound 0.03 µM, first compound 0.1 µM
[21] = second compound 0.03 µM, first compound 0.316 µM
[22] = second compound 0.03 µM, first compound 1 µM
[23] = second compound 0.03 µM, first compound 3.16 µM
[24] = second compound 0.03 µM, first compound 10 µM
[25] = second compound 0.0949 µM, first compound 0.0316 µM
[26] = second compound 0.0949 µM, first compound 0.1 µM
[27] = second compound 0.0949 µM, first compound 0.316 µM
[28] = second compound 0.0949 µM, first compound 1 µM
[29] = second compound 0.0949 µM, first compound 3.16 µM
[30] = second compound 0.0949 µM, first compound 10 µM
[31] = second compound 0.3 µM, first compound 0.0316 µM
[32] = second compound 0.3 µM, first compound 0.1 µM
[33] = second compound 0.3 µM, first compound 0.316 µM
[34] = second compound 0.3 µM, first compound 1 µM
[35] = second compound 0.3 µM, first compound 3.16 µM
[36] = second compound 0.3 µM, first compound 10 µM
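Also: spheroids exposed to compounds for 7 days before reading.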
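For viability, T/C in this document: 100% = DMSO vehicle control viability.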

SMILES: Cc1nc(N2CCC3(CC2)COC(C)C3N)c(CO)nc1Sc1ccnc(N)c1Cl (stereo unspecified) + CCn1c(-c2cccnc2C(C)OC)c2c3cc(ccc31)N1CCOC(CC(NC(=O)C(C(C)C)N(C)C(=O)C3(F)CCN(C(=O)C#CC(C)(C)N(C)C)CC3)C(=O)N3CCCC(N3)C(=O)OCC(C)(C)C2)C1
- IC50 (second compound 0.000949 µM): > 10 µM
- IC50 (second compound 0.003 µM): > 10 µM
- IC50 (second compound 0.00949 µM): > 10 µM
- IC50 (second compound 0.03 µM): > 10 µM
- IC50 (second compound 0.0949 µM): > 10 µM
- IC50 (second compound 0.3 µM): > 10 µM
- viability, T/C [1]: 108%
- viability, T/C [2]: 88%
- viability, T/C [3]: 99.2%
- viability, T/C [4]: 94.2%
- viability, T/C [5]: 98.6%
- viability, T/C [6]: 93.6%
- viability, T/C [7]: 93.1%
- viability, T/C [8]: 95.5%
- viability, T/C [9]: 104%
- viability, T/C [10]: 94.5%
- viability, T/C [11]: 96%
- viability, T/C [12]: 95.7%
- viability, T/C [13]: 95.2%
- viability, T/C [14]: 95.7%
- viability, T/C [15]: 91.4%
- viability, T/C [16]: 98.9%
- viability, T/C [17]: 111%
- viability, T/C [18]: 94%
- viability, T/C [19]: 101%
- viability, T/C [20]: 92.6%
- viability, T/C [21]: 92.2%
- viability, T/C [22]: 98.6%
- viability, T/C [23]: 102%
- viability, T/C [24]: 87.7%
- viability, T/C [25]: 94.5%
- viability, T/C [26]: 99.6%
- viability, T/C [27]: 103%
- viability, T/C [28]: 95.7%
- viability, T/C [29]: 101%
- viability, T/C [30]: 90.1%
- viability, T/C [31]: 93.3%
- viability, T/C [32]: 90.1%
- viability, T/C [33]: 87.5%
- viability, T/C [34]: 96%
- viability, T/C [35]: 101%
- viability, T/C [36]: 91%

SMILES: NC1c2ccccc2OC12CCN(c1cnc3c(N4CCCc5ncccc54)n[nH]c3n1)CC2 (stereo unspecified) + CCn1c(-c2cccnc2C(C)OC)c2c3cc(ccc31)N1CCOC(CC(NC(=O)C(C(C)C)N(C)C(=O)C3(F)CCN(C(=O)C#CC(C)(C)N(C)C)CC3)C(=O)N3CCCC(N3)C(=O)OCC(C)(C)C2)C1
- IC50 (second compound 0.000949 µM): > 10 µM
- IC50 (second compound 0.003 µM): > 10 µM
- IC50 (second compound 0.00949 µM): > 10 µM
- IC50 (second compound 0.03 µM): > 10 µM
- IC50 (second compound 0.0949 µM): > 10 µM
- IC50 (second compound 0.3 µM): > 10 µM
- viability, T/C [1]: 97.9%
- viability, T/C [2]: 105%
- viability, T/C [3]: 108%
- viability, T/C [4]: 105%
- viability, T/C [5]: 93.9%
- viability, T/C [6]: 77.7%
- viability, T/C [7]: 91.5%
- viability, T/C [8]: 104%
- viability, T/C [9]: 101%
- viability, T/C [10]: 89.4%
- viability, T/C [11]: 102%
- viability, T/C [12]: 85.8%
- viability, T/C [13]: 96.2%
- viability, T/C [14]: 109%
- viability, T/C [15]: 91.5%
- viability, T/C [16]: 93.2%
- viability, T/C [17]: 100%
- viability, T/C [18]: 76.7%
- viability, T/C [19]: 88.5%
- viability, T/C [20]: 106%
- viability, T/C [21]: 95.1%
- viability, T/C [22]: 98.5%
- viability, T/C [23]: 91.2%
- viability, T/C [24]: 80.3%
- viability, T/C [25]: 89.1%
- viability, T/C [26]: 93%
- viability, T/C [27]: 92.6%
- viability, T/C [28]: 99.7%
- viability, T/C [29]: 103%
- viability, T/C [30]: 76.5%
- viability, T/C [31]: 90.8%
- viability, T/C [32]: 91.6%
- viability, T/C [33]: 85.8%
- viability, T/C [34]: 92.5%
- viability, T/C [35]: 88.6%
- viability, T/C [36]: 73.4%

SMILES: Nc1ccn(C2OC(CO)C(O)C2(F)F)c(=O)n1 (stereo unspecified) + CCn1c(-c2cccnc2C(C)OC)c2c3cc(ccc31)N1CCOC(CC(NC(=O)C(C(C)C)N(C)C(=O)C3(F)CCN(C(=O)C#CC(C)(C)N(C)C)CC3)C(=O)N3CCCC(N3)C(=O)OCC(C)(C)C2)C1
- IC50 (second compound 0.000949 µM): 0.0293 µM
- IC50 (second compound 0.003 µM): 0.0424 µM
- IC50 (second compound 0.00949 µM): 0.0315 µM
- IC50 (second compound 0.03 µM): 0.038 µM
- IC50 (second compound 0.0949 µM): 0.05 µM
- IC50 (second compound 0.3 µM): 0.0476 µM
- viability, T/C (second compound 0.000949 µM, first compound 0.00316 µM): 89.4%
- viability, T/C (second compound 0.000949 µM, first compound 0.01 µM): 64.7%
- viability, T/C [1]: 50.6%
- viability, T/C [2]: 37.2%
- viability, T/C [3]: 23.5%
- viability, T/C [4]: 23.5%
- viability, T/C (second compound 0.003 µM, first compound 0.00316 µM): 95%
- viability, T/C (second compound 0.003 µM, first compound 0.01 µM): 71.3%
- viability, T/C [7]: 59.3%
- viability, T/C [8]: 34.6%
- viability, T/C [9]: 27.3%
- viability, T/C [10]: 24.5%
- viability, T/C (second compound 0.00949 µM, first compound 0.00316 µM): 96.2%
- viability, T/C (second compound 0.00949 µM, first compound 0.01 µM): 71.8%
- viability, T/C [13]: 50.8%
- viability, T/C [14]: 34.7%
- viability, T/C [15]: 29.1%
- viability, T/C [16]: 25.7%
- viability, T/C (second compound 0.03 µM, first compound 0.00316 µM): 85.4%
- viability, T/C (second compound 0.03 µM, first compound 0.01 µM): 75.7%
- viability, T/C [19]: 53.2%
- viability, T/C [20]: 33.6%
- viability, T/C [21]: 27.2%
- viability, T/C [22]: 25.7%
- viability, T/C (second compound 0.0949 µM, first compound 0.00316 µM): 83.6%
- viability, T/C (second compound 0.0949 µM, first compound 0.01 µM): 71.8%
- viability, T/C [25]: 57.9%
- viability, T/C [26]: 38.7%
- viability, T/C [27]: 28.1%
- viability, T/C [28]: 20.1%
- viability, T/C (second compound 0.3 µM, first compound 0.00316 µM): 85.3%
- viability, T/C (second compound 0.3 µM, first compound 0.01 µM): 71.2%
- viability, T/C [31]: 58.4%
- viability, T/C [32]: 38.5%
- viability, T/C [33]: 24.2%
- viability, T/C [34]: 22.1%

— PubChem BioAssay AID2060887 (Molecular Pharmacology Branch, DTP, NCI, 2025)
